Results from EP0019524A1, “Process for preparing flavilium derivatives, products obtained by the processus and their therapeutical application” (SOCIETE DE RECHERCHES INDUSTRIELLES SORI, priority 1979, dated 1980).

What was measured:
[1] = Acute toxicity (LD50), method of Litchfield et al.; settings: in vivo, ip; mouse, intraperitoneal route; read-out: DL-50 I.P. souris
Procedure: La toxicité a été déterminée chez la souris par voie intrapéritonéale selon la méthode de J.T. LITCHFIELD et al., J. Pharmacol. Exptl. Therap. (1949), 96, 99. La DL-50 I.P. souris des produits III et IV est de 750 mg/kg. Les produits de formule (I) ne sont donc pas toxiques.

[2] = tested on: hématies; experiment: Erythrocyte deformability: filtration rate of erythrocyte suspension and plasma (Schmid-Schönbein technique) in hyperlipidemic monkeys; type: in vivo, singe; settings: monkeys on hyperlipidic diet, 20 mg/kg per os per day for 8 months, mean, 5 µ filter, 50 mm water pressure
Excerpt: La déformabilité des hématies a été mesurée selon la technique de SCHMID-SCHONBEIN et al., Blut (1973), 26, 369-379, par filtration (diamètre des pores du filtre : 5µ) sous une pression constante de 50 mm d'eau, d'une suspension d'hématies amenée à un hématocrite de 10% par dilution dans un plasma autologue. La phase de suspension est également filtrée selon la même technique. On peut apprécier ainsi l'intensité de certaines maladies car le taux de filtration de la suspension d'hématies et/ou de la phase de plasma est modifié par les maladies du métabolisme telles que le diabète et l'hyperlipidémie.
Le taux de filtration des hématies a été déterminé in vivo chez le singe rendu hyperlipidémique après absorption d'un régime gras. Les composés à tester ont été administrés per os à la dose quotidienne de 20 mg/kg pendant 8 mois à des lots de singes : un lot recevant un régime normal, un lot recevant un régime gras, les autres lots recevant le régime gras et un des composés à tester. Les résultats donnés dans le tableau ci-après sont exprimés sous forme d'une moyenne et représentent la vitesse de filtration des hématies ou du plasma en µl/s. La signification statistique des résultats est très bonne (p <( 0,001).

[3] = tested on: patients; experiment: Clinical trial in hyperlipidemic and hypertensive patients; type: in vivo; settings: 21 days
Procedure: On a résumé enfin les résultats des essais cliniques qui ont été entrepris avec le composé III pendant 21 jours sur 65 patients (30 patients étant hyperlipidiques et les 35 autres patients souffrant d'hypertension artérielle), un lot de patients recevant 3 comprimés ou 3 glossettes par jour renfermant chacun 10 mg de composé III, un autre lot recevant une injection quotidienne de 10 mg de composé III. La tolérance de ce produit s'est révélée excellente puisque la condition de 51 patients (c'est-à-dire 78,4%) a été considérablement améliorée.

[4] = of 65 patients (30 hyperlipidemic, 35 arterial hypertension), 3 x 10 mg oral/sublingual or 10 mg injection per day

| SMILES | LD50 [1] [mg/kg] | Vitesse de filtration du plasma [2] | Vitesse de filtration des hématies ([2]; hematocrit 10%) | tolérance ([3]; 65 patients, 3 tablets or sublingual tablets of 10 mg per day, or one daily injection of 10 mg) | patients dont la condition a été considérablement améliorée [3, 4] | patients dont la condition a été considérablement améliorée (nombre) [3, 4] [patients] |
| --- | --- | --- | --- | --- | --- | --- |
| COc1cc(OC)c2cc(O[C@@H]3O[C@H](CO[C@@H]4O[C@@H](C)[C@H](O)[C@@H](O)[C@H]4O)[C@@H](O)[C@H](O)[C@H]3O)c(-c3ccc(OC)c(OC)c3)[o+]c2c1 [composé IV, chlorurede 3-[6-0-(6-désoxy-α-L-mannopyranosyl)-β-D-glucopyranosyloxy]-3',4', 5,7-tétraméthoxy-flavylium] | 750 | – | – | – | – | – |
| C[C@@H]1O[C@@H](OC[C@H]2O[C@@H](Oc3cc4c(O)cc(O)cc4[o+]c3-c3ccc(O)c(O)c3)[C@H](O)[C@@H](O)[C@@H]2O)[C@H](O)[C@H](O)[C@H]1O [composé III, chlorurede 3-[6-0-(6-désoxy-α-L-mannopyranosyl)-β-D-glucopy-ranosyloxy]-3',4',5,7-tétrahydroxy-flavylium] | 750 | 55,92 ± 4,78 µl/s | 43,97 ± 2,30 µl/s | excellente | 78,4% | 51 |
